# System: lymphatic endothelial cells (LEC monoculture / LEC-LMC coculture in lymphangion-chip)
# Test: Lymphatic endothelial barrier function (permeability) of the lymphangion-chip after exposure to TNF-α
# Type: cell-based
# Settings: LMCs cocultured with LECs (graph 400, FIG. 22)
substance,measurement,value
Tumor Necrosis Factor Alpha (TNF-α),lymphatic endothelial barrier function,relatively conserved
